Where a SMILES comes first, the peptide text is derived from it. [ ]: non-standard residue; d: D form. ξ: configuration not given here. ξαMeBip(2'-Et,4'-OMe) = CCc1cc(OC)ccc1-c1ccc(CC(C)(N)C(=O)O)cc1; ξαMePhe(2,6-F2) = CC(N)(Cc1c(F)cccc1F)C(=O)O; ξhhPhe = NC(CCCc1ccccc1)C(=O)O; ξαMeP = CC1(C(=O)O)CCCN1; ξαMeS = CC(N)(CO)C(=O)O; Aib = CC(C)(N)C(=O)O
How the values were obtained:
[1] = test system: RIN5F (Rat Insulinoma) cells; experiment: In vitro glucose-dependent insulin secretion (RIN5F cell assay); assay type: cell-based; settings: 16.7-mM glucose load, n = 3, mean ± S.D.
Outline: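 Rat RIN5F cells were preincubated 40 min in Krebs-Ringer buffer with 1.1 mM glucose and 0.5% BSA, pH 7.4, then exposed to test peptidomimetics for 30 min at 37 °C with 16.7 mM or 0 mM glucose. Supernatant insulin was measured by rat insulin ELISA and normalised to total protein (BCA), as pg/μg.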

[2] = molecular target: DPP IV enzyme (Homo sapiens, UniProt P27487); experiment: Stability against DPP IV enzyme; assay type: in vitro ADME; settings: 2 μM, 37° C.; for half-life: read-out: half-life (t1/2) with DPP-IV enzyme
Sequence of DPP IV enzyme (P27487 whole entry, species assumed, the tested form may be a part): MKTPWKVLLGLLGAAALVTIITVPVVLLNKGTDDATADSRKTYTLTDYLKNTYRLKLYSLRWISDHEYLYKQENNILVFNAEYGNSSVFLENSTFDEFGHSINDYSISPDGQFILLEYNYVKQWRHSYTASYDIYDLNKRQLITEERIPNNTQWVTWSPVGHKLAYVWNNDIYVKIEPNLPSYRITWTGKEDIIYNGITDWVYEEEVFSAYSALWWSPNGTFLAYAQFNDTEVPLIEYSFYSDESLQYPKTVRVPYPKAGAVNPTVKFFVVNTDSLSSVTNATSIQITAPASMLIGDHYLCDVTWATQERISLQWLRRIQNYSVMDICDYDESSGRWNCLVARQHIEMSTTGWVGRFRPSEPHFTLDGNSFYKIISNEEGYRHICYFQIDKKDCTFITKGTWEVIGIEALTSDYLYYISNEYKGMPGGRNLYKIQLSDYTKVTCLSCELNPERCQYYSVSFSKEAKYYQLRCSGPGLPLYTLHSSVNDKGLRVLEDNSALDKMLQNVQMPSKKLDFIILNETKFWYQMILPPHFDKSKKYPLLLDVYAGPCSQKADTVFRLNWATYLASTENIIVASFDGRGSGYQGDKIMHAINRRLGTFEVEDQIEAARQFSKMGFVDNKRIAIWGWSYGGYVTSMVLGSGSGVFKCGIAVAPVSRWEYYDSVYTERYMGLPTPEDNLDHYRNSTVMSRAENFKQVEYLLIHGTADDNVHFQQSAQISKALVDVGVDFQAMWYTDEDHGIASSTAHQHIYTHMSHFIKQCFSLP
Method: (§1) Different peptidomimetics (final concentration 2 μM) were incubated with either DPP IV (1:25 mU) or pooled human plasma (7.5 μL) or simulated gastric fluid (pH 1.5; composition HCl, NaCl and Pepsin) or simulated intestinal fluid (pH 7.5) or human liver microsomes, for 0, 2, 4, 6, 12 and 24 h (37° C.; 50 mM triethanolamine-HCl buffer; pH 7.8). […] Reactions were terminated by the addition of TFA/H2O ([…], 10% (v/v)). The reaction products were then applied to a Vydac C18 analytical column (4.6×250-mm) and the major degradation fragment separated from intact peptidomimetic. The column was equilibrated with TFA/H20, at a flow rate of 1 mL/min. Using 0.1% (v/v) TFA in 70% acetonitrile/H2O, the concentration of acetonitrile in the eluting solvent was raised from 0% to 28% over 10 min and from 28% to 42% over 30 min. The absorbance was monitored at 206 nm using UV detector and peaks were collected manually prior to ESI-MS analysis. Area under the curve was measured for test peptidomimetics and their metabolites and percentage degradation were calculated at each time point over a period of 24 h.

[3] = Stability in human plasma; assay type: in vitro ADME; settings: 2 μM, 37° C.; for half-life: human, plasma, read-out: half-life (t1/2) in human plasma
Method: as §1

[4] = Stability in simulated gastric fluid; assay type: in vitro ADME; settings: 2 μM, 37° C.; for % degradation in 24 h when incubated with simulated gastric fluid: pH 1.5, 24 h
Method: (§2) Reactions were terminated by the addition of TFA/H2O ([…], 10% (v/v)). […] The column was equilibrated with TFA/H20, at a flow rate of 1 mL/min. […] The absorbance was monitored at 206 nm using UV detector and peaks were collected manually prior to ESI-MS analysis.

[5] = Stability in simulated intestinal fluid; assay type: in vitro ADME; settings: 2 μM, 37° C.; for % degradation in 24 h when incubated with simulated intestinal fluid: pH 7.5, 24 h
Method: as §2

[6] = Stability in liver microsomes; assay type: in vitro ADME, human; settings: 2 μM, 37° C.; for half-life: human, microsomes, read-out: half-life (t1/2) in liver microsomes
Method: as §2

Row | SMILES | Insulin secretion ([1]; 0.1 nM test compd.) [pg/µg/h] | Insulin secretion ([1]; 1 nM test compd.) [pg/µg/h] | Insulin secretion ([1]; 10 nM test compd.) [pg/µg/h] | % degradation in 24 h when incubated with DPP-IV enzyme [2] [%] | half-life [2] [h] | % degradation in 24 h when incubated with human plasma [3] [%] | half-life [3] [h] | half-life (t1/2) in simulated gastric fluid ([4]; pH 1.5) | % degradation in 24 h when incubated with simulated gastric fluid [4] [%] | half-life (t1/2) in simulated intestinal fluid ([5]; pH 7.5) | % degradation in 24 h when incubated with simulated intestinal fluid [5] [%] | % degradation in 24 h when incubated with liver microsomes [6] [%] | half-life [6] [h] | half-life ([4]; simulated gi fluid, pH 1.5, read-out: half-life (t1/2) in simulated gastric fluid) [h] | half-life ([5]; simulated gi fluid, pH 7.5, read-out: half-life (t1/2) in simulated intestinal fluid) [h] | half-life (t1/2) in liver microsomes [6]
1 | CCc1cc(OC)ccc1-c1ccc(CC(C)(NC(=O)[C@H](CC(=O)O)NC(=O)[C@H](CO)NC(=O)[C@@H](NC(=O)C(C)(Cc2c(F)cccc2F)NC(=O)[C@@H](NC(=O)CNC(=O)[C@H](CCC(N)=O)NC(=O)C2(C)CCCN2C(=O)[C@H](Cc2c[nH]cn2)NC(=O)[C@@H](N)C(C)C)[C@@H](C)O)[C@@H](C)O)C(=O)NC(CCCc2ccccc2)C(N)=O)cc1 (stereo partly drawn) [compound 28] (H-VH[ξαMeP]QGT[ξαMePhe(2,6-F2)]TSD[ξαMeBip(2'-Et,4'-OMe)][ξhhPhe]-NH2) | 11.8 ± 0.50 | 14.9 ± 0.11 | 27.9 ± 0.31 | 70 | 9 | 71 | 8 | (8) h | 14 | (6) h | 40 | 78 | 1 |  |  | 
2 | CCc1cc(OC)ccc1-c1ccc(CC(C)(NC(=O)[C@H](CC(=O)O)NC(=O)[C@H](CO)NC(=O)[C@@H](NC(=O)C(C)(Cc2c(F)cccc2F)NC(=O)[C@@H](NC(=O)CNC(=O)[C@H](CCC(=O)O)NC(=O)C(C)(C)NC(=O)[C@H](Cc2c[nH]cn2)NC(=O)[C@@H](N)C(C)C)[C@@H](C)O)[C@@H](C)O)C(=O)NC(CCCc2ccccc2)C(N)=O)cc1 (stereo partly drawn) [compound 31] (H-VH[Aib]EGT[ξαMePhe(2,6-F2)]TSD[ξαMeBip(2'-Et,4'-OMe)][ξhhPhe]-NH2) | 12.7 ± 0.21 | 15.8 ± 0.33 | 29.3 ± 0.19 | 86 | 9 | 70 | 8 | (8) h | 15 | (6) h | 41 | 77 | 1 |  |  | 
3 | CCc1cc(OC)ccc1-c1ccc(CC(C)(NC(=O)[C@H](CC(=O)O)NC(=O)C(C)(CO)NC(=O)[C@@H](NC(=O)[C@H](Cc2ccccc2)NC(=O)[C@@H](NC(=O)CNC(=O)[C@H](CCC(=O)O)NC(=O)[C@H](C)NC(=O)[C@H](Cc2c[nH]cn2)NC(=O)[C@@H](N)C(C)C)[C@@H](C)O)[C@@H](C)O)C(=O)NC(CCCc2ccccc2)C(N)=O)cc1 (stereo partly drawn) [compound 38] (H-VHAEGTFT[ξαMeS]D[ξαMeBip(2'-Et,4'-OMe)][ξhhPhe]-NH2) | 13.1 ± 0.11 | 14.9 ± 0.17 | 28.8 ± 0.44 | 00 | > 24 | 00 | > 24 |  | 00 |  | 00 | 31 |  | > 24 | > 24 | (5) h

— US20120264685A1 (priority 2009, published 2012)
